Legend:
Assay type in all cases: in vivo
soybean VAEs [1] = experiment: Particle bombardment of soybean VAEs with Dicot Bomb 9 and glyphosate selection; conditions: for TF / Rooting Shoots: BOMB 9, glyphosate selection
Experimental: For particle bombardment experiments, gold-DNA “bead prep” was prepared by first washing 50 mg 0.6 um gold microcarriers (BioRad part #1652262) in 1 ml 100% ethanol and sonicating for 1 min 45 kHz. Gold was pelleted by centrifugation at 5000 rpm in microfuge (˜2300×g) and ethanol removed. Gold was then re-suspended in 1 ml 100% ethanol and stored at −20 C until use. To precipitate DNA onto beads, the 50 mg gold/1 ml ethanol stock was sonicated for 1 min 45 kHz. 42 ul of this stock was transferred to an Eppendorf tube, then pelleted by centrifugation at 2500 rpm for 10 seconds, after which ethanol was removed. 500 uL sterile water was added and mixture sonicated 1 min 45 kHz. Gold was again pelleted by centrifugation at 2500 rpm for 10 seconds and water removed. 25 ul sterile water was then added, followed by sonication for 1 min 45 kHz. 2.6, 1.3, or 0.65 ug VS225 DNA was added, then sterile water to bring volume up to 245 ul. 250 ul cold 2.5 M CaCl2 was added, followed by 50 ul 0.1 M spermidine. Solution was mixed by low speed vortexing. Tube was incubated on ice for approximately 1 hour with gentle inversions every 5-10 minutes. DNA/gold was pelleted at 1000 rpm (˜100×g) for 2 min and supernatant removed. Pellet was then washed with 1 ml 100% EtOH w/pipette tip, then pelleted again at 1000 rpm (˜100×g) for 2 min and supernatant removed 36 ul 100% EtOH was added to tube and gold completely re-suspended with low-speed vortexing. Bead prep was stored at −20 C until used, with 5 ul used per bombardment. This corresponds to 360, 180, or 90 ng DNA per blast; 290 ug gold per blast (1.2, 0.6, or 0.3 ng DNA per ug gold).
For blasting Soybean VAEs, meristem explants were incubated in 20% PEG4000 with 60 mg/L Captan and 30 mg/L Bravo for 1 hour, rinsed thoroughly, and pre-cultured overnight on WCIC EJW1 media at 28 C 16/8 photoperiod.
After preculture, Soybean VAEs were targeted on a 12% xantham gum holding media, 20 per plate, with meristems oriented upward. Prior to particle bombardment on the PDS-1000 helium gun, stop screens (BioRad part 1652336), 1350 psi rupture disks (BioRad 1652330), and macrocarrier holders (BioRad part 1652322) were sanitized for 1 min in 70% EtOH. Carrier sheets (BioRad part 1652335) were sanitized for 1 min in isopropanol. 1350 psi rupture disk was placed into the rupture disk retaining cap and screwed into the gas acceleration chamber. Stop screen was placed in the brass adjustable nest. 5 uL bead prep was deposited on the center of each carrier sheet loaded onto the macrocarrier holder and allowed to air dry. Macrocarrier holder was then turned over to place above retaining screen on brass nest. Macrocarrier cover lid was screwed on and completed macrocarrier launch assembly was placed on shelf directly under rupture disk. Gap distance between rupture disk and launch assembly was approximately 1 cm. Lid from target plate was removed and plate was placed on shelf 2 (2nd shelf from macrocarrier launch assembly) which is approximately 6 cm from assembly. Helium tank, PDS-1000, and vacuum were all turned on. Door was closed and vacuum applied to ˜27-28 In Hg. Fire button was depressed and held down until blast was complete. Vacuum was then released and target plate removed.
After blasting, soybean VAEs were detargeted onto WCIC EJW1 media and allowed to rest overnight at 28 C 16/8 photoperiod. Explants were then placed on WCIC Spectinomycin Selection Medium and placed in 28 C 16/8 photoperiod.
Alternate selectable markers for soybean VAE transformation—We applied soybean VAE technology to glyphosate selection, and were able to recover T0 plants from particle bombardment using Dicot Bomb 9 (FIG. 29) and the Goosegrass EPSP; where the explants were selected on 75 uM glyphosate; then rooted on 25 uM glyphosate. […] Our glyphosate selection work focused on reducing this cytokinin load during the preculture/rest phase. The T0 rooted shoots tested positive for GUS and RFP (tdTomato).

soybean VAEs [2] = experiment: Agrobacterium-mediated transformation of soybean meristem explants / VAEs with TDZ in co-culture
Experimental: Soybean seeds were surface sanitized in 20% Clorox (from concentrated Clorox with 8.25% sodium hypochlorite) for 5 minutes, rinsed 5× with sterile RO water, and then primed by allowing them to sit for 2 hrs at room temperature. Seeds were then imbibed in WCIC Bean Germination Media (BGM) overnight. Meristem explants were prepared the next day by removing seed coats and cotyledons from the seed using either a manual process or in a wet mill consisting of a series of rollers and spray nozzles. Meristem explants were then either dried under a variety of conditions, or used fresh. Drying of explants was performed in either a Laminar Flow Hood (LFH) with explants resting on a filter paper exposed to air, or in a BryAir seed dryer (model VFB-3-E-DXA) on filter paper. For internal moisture determination, 0.5-1 g of dried material was placed in a 103 C oven for 16-18 hours, contents allowed to cool, then re-weighed. For use in transformation, dried explants—designated as soy VAEs (value added explants) were incubated 1-2 hours at room temperature in 20% PEG4000 (dissolved in sterile distilled water) supplemented with 60 mg/L Captan fungicide and 30 mg/L Bravo (Daconil) fungicide. Explants were then rinsed 5-6× with sterile distilled water and inoculated with Agrobacterium. […] FIGS. 3A and 3B show VAEs (3A) as compared to explants directly from just dry seed (3B).
Agrobacterium inoculum was prepared under laminar flow hood from overnight cultures derived from 20% glycerol stocks stored at −80 C. Glycerol stocks were allowed to thaw, and approximately 50 ul stock was added to 50 ml LB with 50 mg/L kanamycin (GV3101 strain); or 250 ul stock to 50 ml LB with 50 ppm kanamycin and 100 ppm carbenicillin (AGL1 strain). The VS225 binary construct with pVS1 origin of replication conferred resistance to kanamycin, and had aadA, gus, and cas9 genes on its T-DNA. The pWI-1000 binary construct with pVS1 origin of replication conferred resistance to kanamycin, and had aadA and gus on its T-DNA. The pWI-1000 dsRED binary construct with pVS1 origin of replication conferred resistance to kanamycin, and had aadA, gus, and rfp (dsRED) on its T-DNA. Cultures were grown overnight at 28° C. 200 RPM on orbital shaker (Innova 4400 incubator shaker). The next morning optical densities of cultures at 660 nm (OD660) were checked (Hach DR5000™ Spectrophotometer) under laminar flow and then centrifuged at 2619×g for 20 min (H6000A rotor on Sorvall® RC3B centrifuge). Pelleted bacteria was re-suspended in WCIC INO media under laminar flow, diluted to OD660 0.3-0.45, and incubated at room temperature 150 RPM until used (VWR orbital shaker). In some experiments acetosyringone was added to inoculum at 100 uM to help induce the vir operon.
Meristem explants were inoculated under laminar flow in inverted PlantCon® (approximately 25 ml inoculum per PlantCon®) (MP Biomedicals, LLC Cat. 26-722-06) and sonicated for 20 s, 45+/−2 kHz (L&R Sonicator Quantrex 450) in a 0.1% Triton X-100 water bath (Triton X-100 from Sigma #9002-93-1). Inoculated explants were incubated with inoculum for additional 30 min at room temperature at 75 RPM. Excess inoculum was then removed, and explants co-cultured in PlantCons® with 2.5 ml WCIC INO media supplemented with 50 mg/L nystatin, 10 mg/L TBZ, and 95 uM lipoic acid at 23 C 16/8 photoperiod. In some experiments this co-culture media was further supplemented with 1 mg/L TDZ in attempt to multiply meristematic cells and possibly suppress apical dominance. In some experiments acetosyringone was added to inoculum and/or co-culture medium at 100 uM as an inducing agent for the virulence cascade in the vir operon.
After co-culture (3-5 days) explants were transferred to 200 ppm spectinomycin WCIC B5 media. When using the GV3101 strain we supplemented this selection media with 200-400 mg/L carbenicillin to knock Agrobacterium overgrowth down. […]

[3] = tested on: non-inoculated soybean VAEs; experiment: Spectinomycin selection titration on non-inoculated soybean VAEs; conditions: at 5 weeks
Source text: We ran a titration of spectinomycin selection levels on non-inoculated soybean VAEs, and could see visible bleaching and suppression of shooting and rooting as low as 50 ppm at 5 weeks (FIG. 5).

c1ccc(CNc2ncnc3nc[nH]c23)cc1 [BAP, 6-benzylaminopurine]
TF (soybean VAEs [1]; preculture and rest OR (3 ppm BAP)): 0.3% | Rooting Shoots (soybean VAEs [1]; preculture and rest OR (3 ppm BAP), 380 initial explants): 1

O=C(Nc1ccccc1)Nc1cnns1 [TDZ, thidiazuron]
TF (soybean VAEs [1]; preculture EJW1 (1 ppm TDZ), rest EJW0 (no PGRs)): 0.4% | Rooting Shoots (soybean VAEs [1]; preculture EJW1 (1 ppm TDZ), rest EJW0 (no PGRs), 264 initial explants): 1 | TF (soybean VAEs [1]; preculture and rest EJW3 (0.5 ppm TDZ)): 0.5% | Rooting Shoots (soybean VAEs [1]; preculture and rest EJW3 (0.5 ppm TDZ), 387 initial explants): 2 | TF (soybean VAEs [2]; VAE batch S16b, 5 h dry in 20 C Bryair to 8.3% moisture, 3025N, TDZ in co-culture): 0.6% | # T0 Plants (soybean VAEs [2]; VAE batch S16b, 5 h dry in 20 C Bryair to 8.3% moisture, 3025N, TDZ in co-culture, 162 explants): 1 | TF (soybean VAEs [2]; VAE batch S18, 6 h dry in 20 C Bryair to 27% moisture, LD10-30087, TDZ in co-culture): 1.4% | # T0 Plants (soybean VAEs [2]; VAE batch S18, 6 h dry in 20 C Bryair to 27% moisture, LD10-30087, TDZ in co-culture, 74 explants): 1 | TF (soybean VAEs [2]; VAE batch S19, 6 h dry in 20 C Bryair to 21% moisture, LD10-30092, TDZ in co-culture): 3.3% | # T0 Plants (soybean VAEs [2]; VAE batch S19, 6 h dry in 20 C Bryair to 21% moisture, LD10-30092, TDZ in co-culture, 91 explants): 3 | TF (soybean VAEs [2]; VAE batch S20, 6 h dry in 20 C Bryair to 18% moisture, LD10-30094, TDZ in co-culture): 1.2% | # T0 Plants (soybean VAEs [2]; VAE batch S20, 6 h dry in 20 C Bryair to 18% moisture, LD10-30094, TDZ in co-culture, 85 explants): 1 | TF (soybean VAEs [2]; VAE batch S26, 6 h dry in 20 C Bryair, W82, TDZ in co-culture (Table 12)): 4.4% | # T0 Plants (soybean VAEs [2]; VAE batch S26, 6 h dry in 20 C Bryair, W82, TDZ in co-culture, 182 explants (Table 12)): 8 | TF (soybean VAEs [2]; VAE batch S27, 5 h dry in 20 C Bryair, 3849N, TDZ in co-culture): 2.1% | # T0 Plants (soybean VAEs [2]; VAE batch S27, 5 h dry in 20 C Bryair, 3849N, TDZ in co-culture, 289 explants): 6 | TF (soybean VAEs [2]; W82 VAEs, 20 C Bryair 5.5 h, 1 ppm TDZ in co-culture, second set of replicates): 3.2% | # T0 Plants (soybean VAEs [2]; W82 VAEs, 20 C Bryair 5.5 h, 1 ppm TDZ in co-culture, second set of replicates, 126 explants): 4 | TF (soybean VAEs [2]; W82 VAEs, 20 C Bryair 6 h, 1 ppm TDZ in co-culture, first set of replicates (Table 13b)): 5.5% | # T0 Plants (soybean VAEs [2]; W82 VAEs, 20 C Bryair 6 h, 1 ppm TDZ in co-culture, first set of replicates (Table 13b), 182 explants): 10 | TF (soybean VAEs [2]; W82 VAEs, LFH 20.5 h, 1 ppm TDZ in co-culture, second set of replicates): 2.1% | # T0 Plants (soybean VAEs [2]; W82 VAEs, LFH 20.5 h, 1 ppm TDZ in co-culture, second set of replicates, 144 explants): 3 | TF (soybean VAEs [2]; W82 VAEs, various drying conditions, 1 ppm TDZ in co-culture, summary of replicates): 3.8% | # R0 Plants (soybean VAEs [2]; W82 VAEs, various drying conditions, 1 ppm TDZ in co-culture, summary of replicates, 452 explants): 17 | TF (soybean VAEs [2]; freshly excised Williams82, fresh sample of explants dried to generate S17 series, TDZ 1 mg/L in co-culture): 12.6% | # T0 Plants (soybean VAEs [2]; freshly excised Williams82, fresh sample of explants dried to generate S17 series, TDZ 1 mg/L in co-culture, 95 explants): 12 | effect of TDZ in co-culture on transformation (soybean VAEs [2]; freshly excised soy meristem explants (S17 series), TDZ 1 mg/L in co-culture): apparent benefit

O=C(O)CNCP(=O)(O)O [glyphosate]
plant recovery with glyphosate selection (soybean VAEs [1]; preculture and resting media conditions of the spectinomycin protocol (EJW1 with TDZ), particle bombardment): yielded no plants

CN[C@@H]1[C@H](O)[C@H](NC)[C@H]2O[C@@]3(O)C(=O)C[C@@H](C)O[C@H]3O[C@@H]2[C@H]1O [spectinomycin]
lowest spectinomycin level with visible bleaching and suppression of shooting and rooting [3]: 50 ppm

Source: patent US11266086B2, “Efficient plant transformation method” (Wisconsin Alumni Research Foundation, priority 2018, dated 2022)
